Measured values from ChEMBL document CHEMBL1201861, “Genomics of Drug Sensitity in Cancer screening data, Wellcome Trust Sanger Institute”.

Tests used:
Assay in all cases: cells
COR-L88 = assay type: functional, cell-based; details: Homo sapiens;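 further: growth inhibition of COR-L88 cells, read out with a cell viability assay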
Description: SANGER: Inhibition of human COR-L88 cell growth in a cell viability assay.

ChaGo-K-1 = assay type: functional, cell-based; details: Homo sapiens;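 further: growth inhibition of ChaGo-K-1 cells, read out with a cell viability assay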
Description: SANGER: Inhibition of human ChaGo-K-1 cell growth in a cell viability assay.

DU-4475 = assay type: functional, cell-based; details: Homo sapiens
Description: SANGER: Inhibition of human DU-4475 cell growth in a cell viability assay.

Daoy = assay type: functional, cell-based, Homo sapiens; details: Homo sapiens, Daoy;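 further: daoy cell growth inhibition, read out as cell viability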
Description: SANGER: Inhibition of human Daoy cell growth in a cell viability assay.

DoTc2-4510 = assay type: functional, cell-based, Homo sapiens; details: Homo sapiens, DoTc2-4510
ES6 = assay type: functional, cell-based, Homo sapiens; details: Homo sapiens, ES6;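 further: growth inhibition of human ES6 cells, read out with a cell viability assay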
Description: SANGER: Inhibition of human ES6 cell growth in a cell viability assay.

ES8 = assay type: functional, cell-based, Homo sapiens; details: Homo sapiens, ES8;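 further: growth inhibition of human ES8 cells, read out with a cell viability assay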
Description: SANGER: Inhibition of human ES8 cell growth in a cell viability assay.

GAK = assay type: functional, cell-based, Homo sapiens; details: Homo sapiens, GAK;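 further: cell growth inhibition read out by a cell viability assay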
Description: SANGER: Inhibition of human GAK cell growth in a cell viability assay.

H4 = assay type: functional, cell-based; details: Homo sapiens
Description: SANGER: Inhibition of human H4 cell growth in a cell viability assay.

HCC70 = assay type: functional, cell-based, Homo sapiens; details: Homo sapiens, HCC70;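 further: cell viability assay measuring how strongly the compound suppresses proliferation of HCC70 cells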
Description: SANGER: Inhibition of human HCC70 cell growth in a cell viability assay.

HCE-T = assay type: functional, cell-based, Homo sapiens; details: Homo sapiens, HCE-T;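 further: cell viability assay read-out, reporting inhibition of HCE-T cell growth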
Description: SANGER: Inhibition of human HCE-T cell growth in a cell viability assay.

HL-60 = assay type: functional, cell-based; details: Homo sapiens;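 further: growth inhibition of human HL-60 cells, read out with a cell viability assay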
Description: SANGER: Inhibition of human HL-60 cell growth in a cell viability assay.

HOS = assay type: functional, cell-based, Homo sapiens; details: Homo sapiens, HOS;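 further: growth inhibition of human HOS cells, read out with a cell viability assay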
Description: SANGER: Inhibition of human HOS cell growth in a cell viability assay.

KM12 = assay type: functional, cell-based, Homo sapiens; details: Homo sapiens, KM12;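 further: KM12 cell growth inhibition, read out with a cell viability assay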
Description: SANGER: Inhibition of human KM12 cell growth in a cell viability assay.

KNS-42 = assay type: functional, cell-based, Homo sapiens; details: Homo sapiens, KNS-42;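 further: growth inhibition of KNS-42 cells, read out with a cell viability assay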
Description: SANGER: Inhibition of human KNS-42 cell growth in a cell viability assay.

KNS-81-FD = assay type: functional, cell-based, Homo sapiens; details: Homo sapiens, KNS-81-FD;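 further: growth inhibition of KNS-81-FD cells, read out with a cell viability assay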
Description: SANGER: Inhibition of human KNS-81-FD cell growth in a cell viability assay.

L-363 = assay type: functional, cell-based; details: Homo sapiens
Description: SANGER: Inhibition of human L-363 cell growth in a cell viability assay.

LCLC-97TM1 = assay type: functional, cell-based, Homo sapiens; details: Homo sapiens, LCLC-97TM1;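 further: cell viability assay measuring growth inhibition of human LCLC-97TM1 cells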
Description: SANGER: Inhibition of human LCLC-97TM1 cell growth in a cell viability assay.

LS-123 = assay type: functional, cell-based, Homo sapiens; details: Homo sapiens, LS-123
Description: SANGER: Inhibition of human LS-123 cell growth in a cell viability assay.

MC-IXC = assay type: functional, cell-based, Homo sapiens; details: Homo sapiens, MC-IXC;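 further: growth inhibition of MC-IXC cells, read out with a cell viability assay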
Description: SANGER: Inhibition of human MC-IXC cell growth in a cell viability assay.

MDA-MB-157 = assay type: functional, cell-based, Homo sapiens; details: Homo sapiens, MDA-MB-157
Description: SANGER: Inhibition of human MDA-MB-157 cell growth in a cell viability assay.

MDA-MB-453 = assay type: functional, cell-based, Homo sapiens; details: Homo sapiens, MDA-MB-453
Description: SANGER: Inhibition of human MDA-MB-453 cell growth in a cell viability assay.

MKN-28 = assay type: functional, cell-based, Homo sapiens; details: Homo sapiens, MKN-28;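 further: cell viability assay read-out, IC50 reflects suppression of growth of human MKN-28 cells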
Description: SANGER: Inhibition of human MKN28 cell growth in a cell viability assay.

ML-2 = assay type: functional, cell-based; details: Homo sapiens;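 further: growth inhibition of ML-2 cells, measured with a cell viability readout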
Description: SANGER: Inhibition of human ML-2 cell growth in a cell viability assay.

NCI-H1304 = assay type: functional, cell-based; details: Homo sapiens;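 further: growth inhibition of the cancer cell line, measured in a cell viability assay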
Description: SANGER: Inhibition of human NCI-H1304 cell growth in a cell viability assay.

NCI-H2170 = assay type: functional, cell-based, Homo sapiens; details: Homo sapiens, NCI-H2170;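 further: cell viability assay measuring growth inhibition of human NCI-H2170 cancer cells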
Description: SANGER: Inhibition of human NCI-H2170 cell growth in a cell viability assay.

NCI-H2405 = assay type: functional, cell-based, Homo sapiens; details: Homo sapiens, NCI-H2405;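 further: growth inhibition of the human cell line, read out with a cell viability assay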
Description: SANGER: Inhibition of human NCI-H2405 cell growth in a cell viability assay.

NCI-H727 = assay type: functional, cell-based, Homo sapiens; details: Homo sapiens, NCI-H727;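 further: growth inhibition of human NCI-H727 cells, read out with a cell viability assay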
Description: SANGER: Inhibition of human NCI-H727 cell growth in a cell viability assay.

NCI-H747 = assay type: functional, cell-based; details: Homo sapiens;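 further: growth inhibition of human NCI-H747 cells, read out by a cell viability assay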
Description: SANGER: Inhibition of human NCI-H747 cell growth in a cell viability assay.

NUGC-3 = assay type: functional, cell-based, Homo sapiens; details: Homo sapiens, NUGC-3;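 further: growth inhibition of human NUGC-3 cells, read out with a cell viability assay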
Description: SANGER: Inhibition of human NUGC-3 cell growth in a cell viability assay.

RCC10RGB = assay type: functional, cell-based, Homo sapiens; details: Homo sapiens, RCC10RGB;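 further: growth inhibition of human RCC10RGB cells, read out by a cell viability assay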
Description: SANGER: Inhibition of human RCC10RGB cell growth in a cell viability assay.

RD = assay type: functional, cell-based, Homo sapiens; details: Homo sapiens, RD
Description: SANGER: Inhibition of human RD cell growth in a cell viability assay.

RXF 393 = assay type: functional, cell-based; details: Homo sapiens;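 further: growth inhibition of human RXF 393 cells, read out with a cell viability assay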
Description: SANGER: Inhibition of human RXF393 cell growth in a cell viability assay.

SCH = assay type: functional, cell-based, Homo sapiens; details: Homo sapiens, SCH;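 further: growth inhibition of human SCH cells, read out in a cell viability assay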
Description: SANGER: Inhibition of human SCH cell growth in a cell viability assay.

SF-295 = assay type: functional, cell-based, Homo sapiens; details: Homo sapiens, SF-295; read-out: IC50;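 further: growth inhibition of SF-295 cells, read out with a cell viability assay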
Description: SANGER: Inhibition of human SF295 cell growth in a cell viability assay.

SHP77 = assay type: functional, cell-based, Homo sapiens, SHP-77; details: Homo sapiens, SHP77;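 further: growth inhibition of human SHP-77 cells measured by a cell viability assay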
Description: SANGER: Inhibition of human SHP-77 cell growth in a cell viability assay.

SK-LMS-1 = assay type: functional, cell-based, Homo sapiens; details: Homo sapiens, SK-LMS-1;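 further: growth inhibition of human SK-LMS-1 cells, read out with a cell viability assay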
Description: SANGER: Inhibition of human SK-LMS-1 cell growth in a cell viability assay.

SK-UT-1 = assay type: functional, cell-based, Homo sapiens; details: Homo sapiens, SK-UT-1;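 further: growth inhibition of SK-UT-1 cells, measured by a cell viability assay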
Description: SANGER: Inhibition of human SK-UT-1 cell growth in a cell viability assay.

SW1463 = assay type: functional, cell-based, Homo sapiens; details: Homo sapiens, SW1463;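 further: growth inhibition of SW1463 cells, determined with a cell viability assay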
Description: SANGER: Inhibition of human SW1463 cell growth in a cell viability assay.

TE-1 = assay type: functional, cell-based, Homo sapiens; details: Homo sapiens, TE-1
Description: SANGER: Inhibition of human TE-1 cell growth in a cell viability assay.

A-427 = assay type: functional, cell-based, Homo sapiens; details: Homo sapiens, A-427;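 further: growth inhibition of human A-427 cells, read out by a cell viability assay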
Description: SANGER: Inhibition of human A427 cell growth in a cell viability assay.

A704 = assay type: functional, cell-based, Homo sapiens; details: Homo sapiens, A704;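 further: growth inhibition of human A704 cells, read out with a cell viability assay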
Description: SANGER: Inhibition of human A704 cell growth in a cell viability assay.

AM-38 = assay type: functional, cell-based, Homo sapiens; details: Homo sapiens, AM-38;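 further: growth inhibition of AM-38 cells of human origin, read out by a cell viability assay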
Description: SANGER: Inhibition of human AM-38 cell growth in a cell viability assay.

BB65-RCC = assay type: functional, cell-based, Homo sapiens; details: Homo sapiens, BB65-RCC;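 further: growth inhibition of the cell line, measured with a cell viability assay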
Description: SANGER: Inhibition of human BB65-RCC cell growth in a cell viability assay.

CAL-12T = assay type: functional, cell-based, Homo sapiens; details: Homo sapiens, CAL-12T;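 further: growth inhibition of human CAL-12T cells, read out with a cell viability assay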
Description: SANGER: Inhibition of human CAL-12T cell growth in a cell viability assay.

CAL-33 = assay type: functional, cell-based, Homo sapiens; details: Homo sapiens, CAL-33;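 further: growth inhibition of CAL-33 cells, read out with a cell viability assay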
Description: SANGER: Inhibition of human CAL-33 cell growth in a cell viability assay.

CAL-85-1 = assay type: functional, cell-based; details: Homo sapiens;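 further: growth inhibition of human CAL-85-1 cells, read out with a cell viability assay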
Description: SANGER: Inhibition of human CAL-85-1 cell growth in a cell viability assay.

TE-10 = assay type: functional, cell-based, Homo sapiens; details: Homo sapiens, TE-10;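 further: growth inhibition of TE-10 cells, measured by a cell viability assay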
Description: SANGER: Inhibition of human TE-10 cell growth in a cell viability assay.

WM-115 = assay type: functional, cell-based, Homo sapiens; details: Homo sapiens, WM-115
Description: SANGER: Inhibition of human WM-115 cell growth in a cell viability assay.

no-11 = assay type: functional, cell-based, Homo sapiens; details: Homo sapiens;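 further: growth inhibition of human NO-11 cells, read out with a cell viability assay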
Description: SANGER: Inhibition of human no-11 cell growth in a cell viability assay.

COLO-320-HSR = assay type: functional, cell-based; details: Homo sapiens;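 further: growth inhibition of COLO-320-HSR cells, determined with a cell viability assay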
Description: SANGER: Inhibition of human COLO-320-HSR cell growth in a cell viability assay.

D-247MG = assay type: functional, cell-based, Homo sapiens; details: Homo sapiens, D-247MG
Description: SANGER: Inhibition of human D-247MG cell growth in a cell viability assay.

Measured: IC50

C[C@]1(O)C[C@@H](c2nc(-c3ccc4ccc(-c5ccccc5)nc4c3)c3c(N)nccn32)C1 [LINSITINIB]
1.99 µM: MC-IXC
1.71 µM: TE-1
1.34 µM: L-363
1.67 µM: HL-60
0.911 µM: ES6
1.26 µM: RD
0.159 µM: ML-2
0.414 µM: COLO-320-HSR
0.198 µM: NCI-H727
1.23 µM: CAL-85-1
0.21 µM: LCLC-97TM1
not listed: D-247MG
> 2.56 µM: all other assays above

COc1ccc(C2=N[C@@H](c3ccc(Cl)cc3)[C@@H](c3ccc(Cl)cc3)N2C(=O)N2CCNC(=O)C2)c(OC(C)C)c1 [NUTLIN-3]
0.663 µM: H4
6.76 µM: KNS-81-FD | AM-38
4.75 µM: D-247MG
2.57 µM: ML-2
6.93 µM: WM-115
2.8 µM: DU-4475
6.88 µM: A-427
not listed: SK-LMS-1
> 8 µM: all other assays above

O=C(c1cc(Cc2n[nH]c(=O)c3ccccc23)ccc1F)N1CCN(C(=O)C2CC2)CC1 [OLAPARIB]
3.63 µM: MC-IXC
3.6 µM: ML-2
1.72 µM: ES8
4.89 µM: H4
not listed: SK-LMS-1
> 5 µM: all other assays above
